Measurements as given in US20040110954A1, “Methods of synthesizing phenol-contining compounds” (priority 2003, published 2004).
Like-named read-outs stand apart in the source and are kept apart here.

How the values were obtained:
[1] = In vivo half-life and clearance in the rat; conditions: male Sprague-Dawley rats; crossover: 60 min iv infusion, then oral gavage; plasma, noncompartmental analysis
Method: Method for Determining the in vivo Half-life (T½) of Compounds in Table 3. The study was conducted using a crossover design on two separate study days. Three male Sprague-Dawley rats received surgically implanted catheters in the vena cava (via the femoral vein), and in the femoral artery at least three days prior to the study. […] On study day two, the animals (fasted) received the compound by oral gavage (16.0 mL/kg). […] Blood samples were collected prior to dosing and at various times following administration of compounds. Plasma concentrations of the compounds were quantified by an HPLC/MS/MS method (LLQ=10 ng/mL). Noncompartmental analysis was used for pharmacokinetic analysis of plasma concentration versus time data.

[2] = Glucuronidation in rat hepatic microsomes with UDPGA; conditions: rat hepatic microsomes ca. 0.5 mg/mL protein, 0.5 uM compound, UDPGA 4 mM, pH 7.4, 37° C.
Method: (§1) The standard procedure for these experiments is as follows: incubations were performed in a final volume of 1.0 mL in a heated block at approximately 37° C. Each incubation contained approximately 0.5 mg/mL microsomal protein and 0.5 uM of the compound. The incubations were conducted with 50 mM potassium phosphate buffer (pH 7.4) and, following a 5 min preincubation at 37° C., were initiated by the addition of cofactor (UDPGA, 4 mM). Aliquots were removed every three minutes and were quenched with two volumes of ACN/EtOH/Acetic acid (80:20:1) containing an appropriate internal standard. Samples were store frozen (ca.−70° C.) until analysis for the quantitation of the parent compound by LC/MS methods. The rate of disappearance of each compound was determined from relative concentration versus time profiles fitted to appropriate exponential decay equations. CLint (mL/min/g liver) was calculated using standard scaling factors.

[3] = Glucuronidation in human hepatic microsomes with UDPGA; conditions: human hepatic microsomes ca. 0.5 mg/mL protein, 0.5 uM compound, UDPGA 4 mM, pH 7.4, 37° C.
Method: as §1

[4] = microsomes, pH 7.4
Method: as §1

[5] = microsomes, pH 7.4; remark: listed apart in the source
Method: as §1

Compound | Clint (mL/min/g liver) rat ([2]; Table 1 diphenylureas) [mL/min/g liver] | CLint (mL/min/g liver) human ([3]; Table 1 diphenylureas) [mL/min/g liver] | further results
CN(C)S(=O)(=O)c1c(Cl)ccc(NC(=O)Nc2cccc(Cl)c2Cl)c1O [Table 1 Entry 3, N-[4-Chloro-3-(N″,N″-dimethylaminosulfonyl)-2-hydroxyphenyl]-N′-(2,3-dichlorophenyl) urea] | <0.6 | <0.6 | Cl [1]: 65 mL/min/kg; T½ [1]: 11.4 min; Clint (mL/min/g liver) rat ([2]; Table 2 squaramide series): 12 mL/min/g liver; CLint (mL/min/g liver) human ([3]; Table 2 squaramide series): 16 mL/min/g liver
CN(C)S(=O)(=O)c1c(Cl)ccc(NC(=O)Nc2ccccc2Br)c1O [Table 1 Entry 4, N-(2-Bromophenyl)-N′[4-chloro-3-(N″,N″-dimethylaminosulfonyl)-2-hydroxyphenyl] urea] | <0.6 | <0.6 | Cl [1]: 72 mL/min/kg; Clint (mL/min/g liver) rat ([2]; Table 2 squaramide series): 5.1 mL/min/g liver; CLint (mL/min/g liver) human ([3]; Table 2 squaramide series): 28 mL/min/g liver
CNS(=O)(=O)c1c(Cl)ccc(NC(=O)Nc2cccc(Cl)c2Cl)c1O [Table 1 Entry 5, N-[4-chloro-2-hydroxy-3-(N″-methylaminosulfonyl)phenyl]-N′-(2,3-dichlorophenyl) urea] | <0.6 | <0.6 | Cl [1]: 26 mL/min/kg; T½ [1]: 5.4 min; Clint (mL/min/g liver) rat ([2]; Table 2 squaramide series): 6.7 mL/min/g liver; CLint (mL/min/g liver) human ([3]; Table 2 squaramide series): >50 mL/min/g liver
CNS(=O)(=O)c1c(Cl)ccc(NC(=O)Nc2ccccc2Br)c1O [Table 1 Entry 6, N′-(2-bromophenyl)-N′-[4-chloro-2-hydroxy-3-(N″-methylaminosulfonyl)phenyl] urea] |  |  | Clint (mL/min/g liver) rat [4]: <0.6 mL/min/g liver; CLint (mL/min/g liver) human [5]: <0.6 mL/min/g liver
COCCNS(=O)(=O)c1c(Cl)ccc(NC(=O)Nc2cccc(Cl)c2Cl)c1O [Table 1 Entry 7, N-[4-chloro-2-hydroxy-3-[N″-(2-methoxyethyl)sufonyl]phenyl]-N′-(2,3-dichlorophenyl) urea] | <0.6 | <0.6 | 
CS(=O)(=O)c1c(Cl)ccc(NC(=O)Nc2cccc(Cl)c2Cl)c1O [Table 1 Entry 8, 1-(4Chloro-2-hydroxy-3-methanesulfonyl-phenyl)-3-(2,3-dichloro-phenyl)-urea] | <0.6 | <0.6 | 
CS(=O)(=O)c1c(C#N)ccc(NC(=O)Nc2ccccc2Br)c1O [Table 1 Entry 9, 1-(2-Bromo-phenyl)-3-(4-cyano-2-hydroxy-3-methanesulfonyl-phenyl)-urea] | <0.6 | <0.6 | 
CCCc1c(C#N)ccc(NC(=O)Nc2ccccc2Br)c1O [Table 1 Entry 10, 1-(2-Bromo-phenyl)-3-(4-cyano-2-hydroxy-3-propyl-phenyl)-urea] |  | 11.3 | melting point: 174 to 175 °C
CCC(C)c1c(C#N)ccc(NC(=O)Nc2ccccc2Br)c1O (stereo not shown) [Table 1 Entry 11, 1-(2-Bromo-phenyl)-3-[4-cyano-2-hydroxy-3-(1-methyl-propyl)-phenyl]-urea] |  | 2.8 | 
CCCC(C)c1c(C#N)ccc(NC(=O)Nc2ccccc2Br)c1O (stereo not shown) [Table 1 Entry 12, 1-(2-Bromo-phenyl)-3-[4-cyano-2-hydroxy-3-(1-methyl-butyl)-phenyl]-urea] |  | 2.4 | 
CC(C)Cc1c(C#N)ccc(NC(=O)Nc2ccccc2Br)c1O [Table 1 Entry 13, 1-(2-Bromo-phenyl)-3-(4-cyano-2-hydroxy-3-isobutyl-phenyl)-urea] |  | 7.6 | 
N#Cc1ccc(NC(=O)Nc2ccccc2Br)c(O)c1Br [Table 1 Entry 14, 1-(3-Bromo-4-cyano-2-hydroxy-phenyl)-3-(2-bromo-phenyl)-urea] |  |  | Clint (mL/min/g liver) rat [4]: 27 mL/min/g liver; CLint (mL/min/g liver) human [5]: 3.7 mL/min/g liver
C[S+]([O-])c1c(Cl)ccc(NC(=O)Nc2cccc(Cl)c2Cl)c1O (stereo not shown) [Table 1 Entry 15, 1-(4-Chloro-2-hydroxy-3-methanesulfinyl-phenyl)-3-(2,3-dichloro-phenyl)-urea] | 2.6 | 4.1 | 
NS(=O)(=O)Cc1c(Cl)ccc(NC(=O)Nc2cccc(Cl)c2Cl)c1O [Table 1 Entry 16, {6-Chloro-3-[3-(2,3-dichloro-phenyl)-ureido]-2-hydroxy-phenyl}-methanesulfonamide] | 1.3 | 11 | 
NC(=O)c1c(Cl)ccc(NC(=O)Nc2ccccc2Br)c1O [Table 1 Entry 17, 3-[3-(2-Bromo-phenyl)-ureido]-6-chloro-2-hydroxy-benzamide] | 5.2 | 15.4 | 
O=C(Nc1ccc(Cl)c(C(=O)Nc2ccccc2)c1O)Nc1cccc(Cl)c1Cl [Table 1 Entry 18, 6-Chloro-3-[3-(2,3-dichloro-phenyl)-ureido]-2-hydroxy-N-phenyl-benzamide] | 9.3 | 11 | melting point: 244 to 245 °C
O=C(Nc1ccc(Cl)c(C(=O)N2CCOCC2)c1O)Nc1cccc(Cl)c1Cl [Table 1 Entry 19, 1-[4-Chloro-2-hydroxy-3-(1-morpholin-4-yl-methanoyl)-phenyl]-3-(2,3-dichloro-phenyl)-urea] | 24 | 21 | 
N-(4-chloro-2-hydroxy-3-aminosulfonylphenyl)-N′-(2,3-dichlorophenyl) urea sodium salt [Example 1] | <0.6 | <0.6 | Cl [1]: 4.6 mL/min/kg; T½ [1]: 636 min; Clint (mL/min/g liver) rat ([2]; Table 2 squaramide series): <0.6 mL/min/g liver; CLint (mL/min/g liver) human ([3]; Table 2 squaramide series): <0.6 mL/min/g liver
